# Measurements published in US20250109127A1, “METHODS OF USE OF PHENOXYPROPYLAMINE COMPOUNDS TO TREAT DEPRESSION” (Minerva Neurosciences, Inc., priority 2013, published 2025).
# Values joined by “and” are separate entries in the source; they are usually repeats but may differ in a detail not shown here. Equal values may be shown once. Where a name gives a salt, the structure may show the parent alone.
# Key:
# 5-HT1A = molecular target: T1, 5-HT1A (Homo sapiens, UniProt P08908); test: Receptor binding, 5-HT1A
# T1 sequence (P08908 1-422): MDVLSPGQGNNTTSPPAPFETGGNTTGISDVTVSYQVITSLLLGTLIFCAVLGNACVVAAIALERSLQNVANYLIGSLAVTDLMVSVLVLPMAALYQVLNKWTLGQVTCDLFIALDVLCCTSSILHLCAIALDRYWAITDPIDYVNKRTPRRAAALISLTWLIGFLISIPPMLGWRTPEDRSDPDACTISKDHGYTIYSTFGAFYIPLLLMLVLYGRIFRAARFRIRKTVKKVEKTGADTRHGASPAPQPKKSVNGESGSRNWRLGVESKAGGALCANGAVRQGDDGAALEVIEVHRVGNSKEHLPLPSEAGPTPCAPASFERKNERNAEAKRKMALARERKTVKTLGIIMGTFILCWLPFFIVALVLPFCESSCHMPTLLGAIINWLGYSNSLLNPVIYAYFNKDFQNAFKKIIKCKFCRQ
# [1] = tested on: 5-HIAA release in the rat prefrontal cortex; test: Microdialysis: 5-HIAA release in prefrontal cortex after I.P. administration; type: in vivo; settings: for 5-HIAA (% of respective basal), individual animal: 0.1 mg/kg I.P., c2-c9 = R#13,14,20,19,25,26,31,32; for 5-HIAA (% of respective basal), individual animal / 5-HIAA release, individual animals: hydrochloride; for 5-HIAA release, MEAN / 5-HIAA release, individual animals: 0.3 mg/kg I.P.; for 5-HIAA release, MEAN: n = 8; for 5-HIAA release, individual animals: one column per animal R#11,12,18,23,29,30,17,24
# Procedure: The aim of the study was to evaluate, using microdialysis, the effects of an intraperitoneal (I.P.) administration in rats of three different doses of SON-117 on dopamine and its metabolites, serotonin and its metabolite (5-HIAA), and norepinephrine levels in prefrontal cortex.
# Thirty-two adult male Wistar rats were used for the whole study (4 groups of eight animals planned for the study, Table 1).
# Surgery was performed on rats weighing about 300 g at the beginning of the experiments. Rats were anaesthetized with Ketamine (50 mg/kg) & Xylazine (15 mg/kg) by intramuscular administration. The animals were placed in a stereotaxic apparatus in the flat-skull position at a constant setting of −3.3 mm between ear bars and the incisor bar. The animals were treated with a local anesthesic (xylocaine 1%, Astra Zeneca) and an analgesic (Temgesic, from Schering Plough, 0.05 mg/kg, s.c.). A rostrocaudal midline incision was made with a lancet to expose the dorsal skull surface. The “stereotaxic zero” was defined by the Bregma in accordance with Paxinos and Watson's atlas (1986). A hole was drilled in the skull with a drill and the meninges were pierced with a sterile needle to implant a CMA12 guide cannula which later received the dialysis probe.
# Coordinates used for implanting guide cannula in prefrontal cortex from Bregma were anteroposterior 3.7 mm, mediolateral 0.8 mm, and dorsoventral −2 mm (top of the probe was at −5 mm). The guide cannula was fixed to the skull with two stainless steel screws (1.88 mm outside diameter) anchored. An application of dental cement was added. A plastic collar allowed each animal to be tethered to a Swivel assembly of the CMA 120 awake animal system. Following surgery, rats were kept in individual cages and allowed to recover for a minimum of 3-5 days before the experimentation. The rats were handled and put in plastic bowl for 10 min at least every day to habituate the animals to their new environment for the dialysis. An I.P. administration with saline was also performed every day.
# Dialysis probes (CMA12/3 mm, membrane, 20 kD cut-off, Carnegie Medicine, Stockholm, Sweden), were carefully washed before inserting into the guide cannula. The wash was performed with the artificial cerebrospinal fluid (aCSF) medium (NaCl 147 mM, KCl 2.7 mM, CaCl2 1.2 mM, MgCl2 0.85 mM) at room temperature. The dialysis system was then equilibrated at 20° C. at a perfusion rate of 1 μl/min with a Carnegie pump (CMA100). All catheters (FEP tubing, internal volume of 1.2 μl/10 cm, and tubing adaptors) used for microdialysis were treated in the same conditions.
# The probes duly prepared were inserted into the guide cannula and the CMA120 Swivel assembly secured to the animal using a plastic collar. Flow through the dialysis probe with aCSF was maintained at a rate of 1 μl/min during the whole experimentation. The first four fractions (corresponding to 2 hours) were discarded to avoid the effects of parenchymal disturbance and to ensure that an approximate steady-state level was reached. Fractions were then collected over a period of 8.5 h during which time the animals remained quiet. The dialysates were automatically collected with an autosampler (microfraction collector CMA 140, Carnegie Medicin) and stored at −80° C. until analysis. […] Perfusion was then maintained for 7 hours with aCSF. The dialysates (30 μl) were collected into 300 μl vials, transferred into dry ice and then kept frozen (−80° C.) until analysis. Frozen samples were shipped to a partner for analysis. At the end of the microdialysis study, a PBS with colored ink was perfused through the probe in order to visualize the dialyzed area.
# Catecholamine assay: Concentrations of dopamine, DOPAC, HVA, 5-HIAA, 5-HT, and norepinephrin were determined for each sample by HPLC coupled with electrochemical detection.
compound,measurement,setting,value
"Cc1nnc(-c2cc3c(OC[C@@H](O)CN4CCC(c5ccc(Cl)c(Cl)c5)CC4)cccc3o2)o1 [SON-117, (S)-1-(4-(3,4-dichlorophenyl)piperidino)-3-(2-(5-methyl-1,3,4-oxadiazol-2-yl)benzo(b)furan-4-yloxy)-2-propanol hydrochloride]","affinity, 5-HT1A receptor binding",5-HT1A,high affinity
same,"5-HIAA (% of respective basal), individual animal",[1]; T30-T1 h,123.49 % of respective basal and 103.49 % of respective basal and 107.39 % of respective basal and 112.69 % of respective basal and 111.19 % of respective basal and 139.2 % of respective basal and 117.52 % of respective basal and 104.09 % of respective basal
same,"5-HIAA (% of respective basal), individual animal",[1]; T1 h 30-T2 h,92.61 % of respective basal and 104.00 % of respective basal and 73.42 % of respective basal and 136.95 % of respective basal and 121.36 % of respective basal and 90.88 % of respective basal and 109.96 % of respective basal and 88.3 % of respective basal
same,"5-HIAA (% of respective basal), individual animal",[1]; T1 h-T1 h 30,133.03 % of respective basal and 136.32 % of respective basal and 86.58 % of respective basal and 118.45 % of respective basal and 137.53 % of respective basal and 136.04 % of respective basal and 114.03 % of respective basal and 94.61 % of respective basal
same,"5-HIAA (% of respective basal), individual animal",[1]; T2 h 30-T3 h,85.72 % of respective basal and 87.35 % of respective basal and 46.33 % of respective basal and 101.63 % of respective basal and 145.61 % of respective basal and 142.25 % of respective basal and 116.28 % of respective basal and 27.66 % of respective basal
same,"5-HIAA (% of respective basal), individual animal",[1]; T2 h-T2 h 30,100.99 % of respective basal and 85.23 % of respective basal and 60.74 % of respective basal and 101.82 % of respective basal and 125.47 % of respective basal and 100.57 % of respective basal and 111.12 % of respective basal and 50.78 % of respective basal
same,"5-HIAA (% of respective basal), individual animal",[1]; T3 h 30-T4 h,85.88 % of respective basal and 94.27 % of respective basal and 31.74 % of respective basal and 96.48 % of respective basal and 188.3 % of respective basal and 137.13 % of respective basal and 101.46 % of respective basal and 21.73 % of respective basal
same,"5-HIAA (% of respective basal), individual animal",[1]; T3 h-T3 h 30,129.21 % of respective basal and 80.95 % of respective basal and 41.77 % of respective basal and 96.17 % of respective basal and 133.55 % of respective basal and 113.01 % of respective basal and 113.45 % of respective basal and 29.04 % of respective basal
same,"5-HIAA (% of respective basal), individual animal",[1]; T4 h 30-T5 h,135.57 % of respective basal and 84.63 % of respective basal and 82.26 % of respective basal and 21.52 % of respective basal and 127.36 % of respective basal and 130.30 % of respective basal and 108.83 % of respective basal and 86.42 % of respective basal
same,"5-HIAA (% of respective basal), individual animal",[1]; T4 h-T4 h 30,155.28 % of respective basal and 81.87 % of respective basal and 29.82 % of respective basal and 104.10 % of respective basal and 154.95 % of respective basal and 128.712 % of respective basal and 116.56 % of respective basal and 100.63 % of respective basal
same,"5-HIAA (% of respective basal), individual animal",[1]; T5 h 30-T6 h,139.17 % of respective basal and 82.04 % of respective basal and 19.18 % of respective basal and 72.04 % of respective basal and 120.26 % of respective basal and 106.59 % of respective basal and 103.65 % of respective basal and 79.99 % of respective basal
same,"5-HIAA (% of respective basal), individual animal",[1]; T5 h-T5 h 30,141.25 % of respective basal and 94.73 % of respective basal and 20.29 % of respective basal and 84.33 % of respective basal and 123.82 % of respective basal and 104.61 % of respective basal and 111.73 % of respective basal and 87.84 % of respective basal
same,"5-HIAA (% of respective basal), individual animal",[1]; T6 h 30-T7 h,142.73 % of respective basal and 92.55 % of respective basal and 23.25 % of respective basal and 79.21 % of respective basal
same,"5-HIAA (% of respective basal), individual animal",[1]; T6 h-T6 h 30,150.15 % of respective basal and 87.80 % of respective basal and 10.87 % of respective basal and 82.34 % of respective basal and 124.74 % of respective basal and 107.55 % of respective basal and 96.41 % of respective basal and 77.86 % of respective basal
same,"5-HIAA release, MEAN",[1]; T0-T30 min,103.44 % of respective basal
same,"5-HIAA release, MEAN",[1]; T30-T1 h,100.34 % of respective basal
same,"5-HIAA release, individual animals",[1]; T30-T1 h,98.98 % of respective basal and 79.36 % of respective basal and 110.17 % of respective basal and 105.67 % of respective basal and 80.63 % of respective basal and 95.45 % of respective basal and 117.90 % of respective basal and 114.56 % of respective basal
same,"5-HIAA release, MEAN",[1]; T1 h 30-T2 h,92.27 % of respective basal
same,"5-HIAA release, individual animals",[1]; T1 h 30-T2 h,107.81 % of respective basal and 80.74 % of respective basal and 99.11 % of respective basal and 100.15 % of respective basal and 74.98 % of respective basal and 49.45 % of respective basal and 122.26 % of respective basal and 103.65 % of respective basal
same,"5-HIAA release, MEAN",[1]; T1 h-T1 h 30,98.46 % of respective basal
same,"5-HIAA release, individual animals",[1]; T1 h-T1 h 30,102.59 % of respective basal and 87.99 % of respective basal and 119.49 % of respective basal and 107.50 % of respective basal and 64.53 % of respective basal and 82.55 % of respective basal and 108.28 % of respective basal and 114.78 % of respective basal
same,"5-HIAA release, MEAN",[1]; T2 h 30-T3 h,88.58 % of respective basal
same,"5-HIAA release, individual animals",[1]; T2 h 30-T3 h,90.73 % of respective basal and 88.56 % of respective basal and 94.96 % of respective basal and 87.45 % of respective basal and 59.92 % of respective basal and 79.89 % of respective basal and 107.14 % of respective basal and 99.98 % of respective basal
same,"5-HIAA release, MEAN",[1]; T2 h-T2 h 30,88.16 % of respective basal
